# Data taken from patent US6525001B1, “Substituted pyrimidine and pyridine herbicides” (Mid-American Commercialization Corporation, priority 1997, dated 2003).
# Experiments:
# Format in all cases: in vivo
# Parameters in all cases: key: 0 is no effect; 10 is complete control
# [1] = test system: barnyardgrass (Echinochloa crus-galli); test: Test A pre-/postemergence; settings: 0 to 10 scale
# Experimental: (§1) Seeds of barnyardgrass (Echinochloa crus-galli), crabgrass (Digitaria spp.), morningglory (Ipomoea spp.), and velvetleaf (Abutilon theophrasti) were planted into a sandy loam soil and treated preemergence by soil drench with test chemicals formulated in a non-phytotoxic solvent mixture which includes a surfactant. At the same time, these crop and weed species were also treated postemergence sprayed to runoff, with test chemicals formulated in the same manner. Plants ranged in height from two to eighteen cm and were in the one to two leaf stage for the postemergence treatment. Treated plants and untreated controls were maintained in a greenhouse for approximately eleven days, after which all treated plants were compared to untreated controls and visually evaluated for injury. Plant response ratings, summarized in Table A, are based on a 0 to 10 scale where 0 is no effect and 10 is complete control. A dash (−) response means no test results.
# [2] = test system: crabgrass (Digitaria spp.); test: Test A pre-/postemergence; settings: 0 to 10 scale
# Experimental: as §1
# [3] = test system: morningglory (Ipomoea spp.); test: Test A pre-/postemergence; settings: 0 to 10 scale
# Experimental: as §1
# [4] = test system: velvetleaf (Abutilon theophrasti); test: Test A pre-/postemergence; settings: 0 to 10 scale
# Experimental: as §1
# [5] = test system: bedstraw (Galium aparine); test: Test B pre-/postemergence
# Method in brief: (§2)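 Seeds were planted and sprayed preemergence, while plants at 2 to 18 cm (1- to 4-leaf stage) were sprayed postemergence at the same time, with test chemical in a non-phytotoxic solvent mixture containing surfactant. After twelve to sixteen days in a greenhouse, injury was rated visually against untreated controls on a 0–10 scale.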
# [6] = test system: blackgrass (Alopecurus myosuroides); test: Test B pre-/postemergence
# Method in brief: as §2
# [7] = test system: broadleaf signalgrass (Brachiaria decumbens); test: Test B pre-/postemergence
# Method in brief: as §2
# [8] = test system: cocklebur (Xanthium strumarium); test: Test B pre-/postemergence
# Method in brief: as §2
# corn (Zea mays) = test: Test B pre-/postemergence
# Method in brief: as §2
# [9] = test system: crabgrass (Digitaria sanguinalis); test: Test B pre-/postemergence
# Method in brief: as §2
# [10] = test system: giant foxtail (Setaria faberii); test: Test B pre-/postemergence
# Method in brief: as §2
# [11] = test system: momingglory (Ipomoea hederacea); test: Test B pre-/postemergence
# Method in brief: as §2
# [12] = test system: pigweed (Amaranthus retroflexus); test: Test B pre-/postemergence
# Method in brief: as §2
# [13] = test system: purple nutsedge (Cyperus rotundus); test: Test B pre-/postemergence
# Method in brief: as §2
# rape (Brassica napus) = test: Test B pre-/postemergence
# Method in brief: as §2
# soybean (Glycine max) = test: Test B pre-/postemergence
# Method in brief: as §2
# [14] = test system: sugar beet (Beta vulgaris); test: Test B pre-/postemergence
# Method in brief: as §2
# [15] = test system: velvetleaf (Abutilon theophrasti); test: Test B pre-/postemergence
# Method in brief: as §2
# [16] = test system: wheat (Triticum aestivum); test: Test B pre-/postemergence
# Method in brief: as §2
# wild oat (Avena fatua) = test: Test B pre-/postemergence
# Method in brief: as §2
# [17] = test system: bamyardgrass (Echinochloa crus-galli); test: Test B flood test
# Method in brief: (§3)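 Plants were grown to the 2-leaf stage before treatment with test chemical, then held in a greenhouse for twelve to sixteen days. Injury was visually rated against untreated controls on a 0–10 scale, where 0 is no effect and 10 is complete control.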
# [18] = test system: duck salad (Heteranthera limosa); test: Test B flood test
# Method in brief: as §3
# rice (Oryza sativa) = test: Test B flood test
# Method in brief: as §3
# [19] = test system: smallflower flatsedge (Cyperus difformis); test: Test B flood test
# Method in brief: as §3
# [20] = PRE SOIL DRENCH, Rate 1000 g/ha
# [21] = PRE SOIL DRENCH, Rate 2000 g/ha
# [22] = postemergence SPRAYED TO RUNOFF, Rate 500 g/ha
# [23] = postemergence SPRAYED TO RUNOFF, Rate 1000 g/ha
# [24] = Preemergence, Rate 62 g/ha, scale of 0 to 10
# [25] = Rate 62 g/ha, Postemergence (flood test)
# [26] = Rate 125 g/ha, Postemergence section (flood test species)
# [27] = Rate 250 g/ha, Postemergence (flood test species)
smiles,measurement,setting,value
Cc1cnc(-c2ccccc2)nc1Cn1cnc(C(F)(F)F)c1 [Compound 8],"Plant response rating, Barnyardgrass",[1]; [20],4
same,"Plant response rating, Barnyardgrass",[1]; [21],7
same,"Plant response rating, Barnyardgrass",[1]; [22],3
same,"Plant response rating, Barnyardgrass",[1]; [23],3
same,"Plant response rating, Crabgrass",[2]; [20],9
same,"Plant response rating, Crabgrass",[2]; [21],10
same,"Plant response rating, Crabgrass",[2]; [22],8
same,"Plant response rating, Crabgrass",[2]; [23],5
same,"Plant response rating, Morningglory",[3]; [20],9
same,"Plant response rating, Morningglory",[3]; [21],8
same,"Plant response rating, Morningglory",[3]; [22],3
same,"Plant response rating, Morningglory",[3]; [23],7
same,"Plant response rating, Velvetleaf",[4]; [20],2
same,"Plant response rating, Velvetleaf",[4]; [21],3
same,"Plant response rating, Velvetleaf",[4]; [22],1
same,"Plant response rating, Velvetleaf",[4]; [23],2
N#Cc1ccc(-c2nccc(C(=O)c3cccc(C(F)(F)F)c3)n2)cc1 [Compound 78],"Plant response rating, Bedstraw",[5]; [24],0
same,Bedstraw plant response rating,"[5]; Rate 62 g/ha, Postemergence",0
same,Bedstraw plant response rating,"[5]; Rate 125 g/ha, Postemergence",0
same,"Plant response rating, Bedstraw","[5]; Rate 125 g/ha, Preemergence",0
same,"Plant response rating, Bedstraw","[5]; Rate 250 g/ha, Postemergence",0
same,"Plant response rating, Bedstraw","[5]; Rate 250 g/ha, Preemergence",0
same,"Plant response rating, Blackgrass",[6]; [24],0
same,Blackgrass plant response rating,"[6]; Rate 62 g/ha, Postemergence",0
same,Blackgrass plant response rating,"[6]; Rate 125 g/ha, Postemergence",0
same,"Plant response rating, Blackgrass","[6]; Rate 125 g/ha, Preemergence",0
same,"Plant response rating, Blackgrass","[6]; Rate 250 g/ha, Postemergence",1
same,"Plant response rating, Blackgrass","[6]; Rate 250 g/ha, Preemergence",0
same,B. signalgrass plant response rating,"[7]; Rate 62 g/ha, Postemergence",0
same,B. signalgrass plant response rating,"[7]; Rate 62 g/ha, Preemergence",0
same,B. signalgrass plant response rating,"[7]; Rate 125 g/ha, Postemergence",0
same,"Plant response rating, B. signalgrass","[7]; Rate 125 g/ha, Preemergence",0
same,"Plant response rating, B. signalgrass","[7]; Rate 250 g/ha, Postemergence",1
same,"Plant response rating, B. signalgrass","[7]; Rate 250 g/ha, Preemergence",0
same,"Plant response rating, Cocklebur",[8]; [24],0
same,Cocklebur plant response rating,"[8]; Rate 62 g/ha, Postemergence",0
same,Cocklebur plant response rating,"[8]; Rate 125 g/ha, Postemergence",0
same,"Plant response rating, Cocklebur","[8]; Rate 125 g/ha, Preemergence",0
same,"Plant response rating, Cocklebur","[8]; Rate 250 g/ha, Postemergence",0
same,"Plant response rating, Cocklebur","[8]; Rate 250 g/ha, Preemergence",0
same,"Plant response rating, Corn",corn (Zea mays); [24],0
same,Corn plant response rating,"corn (Zea mays); Rate 62 g/ha, Postemergence",0
same,Corn plant response rating,"corn (Zea mays); Rate 125 g/ha, Postemergence",0
same,"Plant response rating, Corn","corn (Zea mays); Rate 125 g/ha, Preemergence",0
same,"Plant response rating, Corn","corn (Zea mays); Rate 250 g/ha, Postemergence",2
same,"Plant response rating, Corn","corn (Zea mays); Rate 250 g/ha, Preemergence",0
same,"Plant response rating, Crabgrass",[9]; [24],0
same,Crabgrass plant response rating,"[9]; Rate 62 g/ha, Postemergence",0
same,Crabgrass plant response rating,"[9]; Rate 125 g/ha, Postemergence",0
same,"Plant response rating, Crabgrass","[9]; Rate 125 g/ha, Preemergence",0
same,"Plant response rating, Crabgrass","[9]; Rate 250 g/ha, Postemergence",0
same,"Plant response rating, Crabgrass","[9]; Rate 250 g/ha, Preemergence",0
same,"Plant response rating, Giant foxtail",[10]; [24],0
same,Giant foxtail plant response rating,"[10]; Rate 62 g/ha, Postemergence",0
same,Giant foxtail plant response rating,"[10]; Rate 125 g/ha, Postemergence",0
same,"Plant response rating, Giant foxtail","[10]; Rate 125 g/ha, Preemergence",0
same,"Plant response rating, Giant foxtail","[10]; Rate 250 g/ha, Postemergence",0
same,"Plant response rating, Giant foxtail","[10]; Rate 250 g/ha, Preemergence",0
same,"Plant response rating, Morningglory",[11]; [24],0
same,Morningglory plant response rating,"[11]; Rate 62 g/ha, Postemergence",0
same,Morningglory plant response rating,"[11]; Rate 125 g/ha, Postemergence",0
same,"Plant response rating, Morningglory","[11]; Rate 125 g/ha, Preemergence",0
same,"Plant response rating, Morningglory","[11]; Rate 250 g/ha, Postemergence",2
same,"Plant response rating, Morningglory","[11]; Rate 250 g/ha, Preemergence",0
same,"Plant response rating, Redroot pigweed",[12]; [24],0
same,Redroot pigweed plant response rating,"[12]; Rate 62 g/ha, Postemergence",0
same,Redroot pigweed plant response rating,"[12]; Rate 125 g/ha, Postemergence",0
same,"Plant response rating, Redroot pigweed","[12]; Rate 125 g/ha, Preemergence",0
same,"Plant response rating, Redroot pigweed","[12]; Rate 250 g/ha, Postemergence",4
same,"Plant response rating, Redroot pigweed","[12]; Rate 250 g/ha, Preemergence",0
same,"Plant response rating, Nutsedge",[13]; [24],0
same,Nutsedge plant response rating,"[13]; Rate 62 g/ha, Postemergence",0
same,Nutsedge plant response rating,"[13]; Rate 125 g/ha, Postemergence",0
same,"Plant response rating, Nutsedge","[13]; Rate 125 g/ha, Preemergence",0
same,"Plant response rating, Nutsedge","[13]; Rate 250 g/ha, Postemergence",0
same,"Plant response rating, Nutsedge","[13]; Rate 250 g/ha, Preemergence",0
same,"Plant response rating, Rape",rape (Brassica napus); [24],0
same,Rape plant response rating,"rape (Brassica napus); Rate 62 g/ha, Postemergence",0
same,Rape plant response rating,"rape (Brassica napus); Rate 125 g/ha, Postemergence",0
same,"Plant response rating, Rape","rape (Brassica napus); Rate 125 g/ha, Preemergence",0
same,"Plant response rating, Rape","rape (Brassica napus); Rate 250 g/ha, Postemergence",0
same,"Plant response rating, Rape","rape (Brassica napus); Rate 250 g/ha, Preemergence",0
same,"Plant response rating, Soybean",soybean (Glycine max); [24],0
same,Soybean plant response rating,"soybean (Glycine max); Rate 62 g/ha, Postemergence",0
same,Soybean plant response rating,"soybean (Glycine max); Rate 125 g/ha, Postemergence",0
same,"Plant response rating, Soybean","soybean (Glycine max); Rate 125 g/ha, Preemergence",0
same,"Plant response rating, Soybean","soybean (Glycine max); Rate 250 g/ha, Postemergence",0
same,"Plant response rating, Soybean","soybean (Glycine max); Rate 250 g/ha, Preemergence",0
same,"Plant response rating, Sugarbeets",[14]; [24],0
same,Sugarbeets plant response rating,"[14]; Rate 62 g/ha, Postemergence",0
same,Sugarbeets plant response rating,"[14]; Rate 125 g/ha, Postemergence",0
same,"Plant response rating, Sugarbeets","[14]; Rate 125 g/ha, Preemergence",0
same,"Plant response rating, Sugarbeets","[14]; Rate 250 g/ha, Postemergence",0
same,"Plant response rating, Sugarbeets","[14]; Rate 250 g/ha, Preemergence",0
same,"Plant response rating, Velvetleaf",[15]; [24],0
same,Velvetleaf plant response rating,"[15]; Rate 62 g/ha, Postemergence",0
same,Velvetleaf plant response rating,"[15]; Rate 125 g/ha, Postemergence",0
same,"Plant response rating, Velvetleaf","[15]; Rate 125 g/ha, Preemergence",0
same,"Plant response rating, Velvetleaf","[15]; Rate 250 g/ha, Postemergence",0
same,"Plant response rating, Velvetleaf","[15]; Rate 250 g/ha, Preemergence",0
same,"Plant response rating, Wheat",[16]; [24],0
same,Wheat plant response rating,"[16]; Rate 62 g/ha, Postemergence",0
same,Wheat plant response rating,"[16]; Rate 125 g/ha, Postemergence",0
same,"Plant response rating, Wheat","[16]; Rate 125 g/ha, Preemergence",0
same,"Plant response rating, Wheat","[16]; Rate 250 g/ha, Postemergence",0
same,"Plant response rating, Wheat","[16]; Rate 250 g/ha, Preemergence",0
same,"Plant response rating, Wild oats",wild oat (Avena fatua); [24],0
same,Wild oats plant response rating,"wild oat (Avena fatua); Rate 62 g/ha, Postemergence",0
same,Wild oats plant response rating,"wild oat (Avena fatua); Rate 125 g/ha, Postemergence",0
same,"Plant response rating, Wild oats","wild oat (Avena fatua); Rate 125 g/ha, Preemergence",0
same,"Plant response rating, Wild oats","wild oat (Avena fatua); Rate 250 g/ha, Postemergence",0
same,"Plant response rating, Wild oats","wild oat (Avena fatua); Rate 250 g/ha, Preemergence",0
same,Barnyardgrass plant response rating,[17]; [25],0
same,Barnyardgrass plant response rating,[17]; [26],0
same,"Plant response rating, Barnyardgrass",[17]; [27],0
same,Ducksalad plant response rating,[18]; [25],0
same,Ducksalad plant response rating,[18]; [26],0
same,"Plant response rating, Ducksalad",[18]; [27],0
same,Rice plant response rating,rice (Oryza sativa); [25],0
same,Rice plant response rating,rice (Oryza sativa); [26],0
same,"Plant response rating, Rice",rice (Oryza sativa); [27],0
same,S. Flatsedge plant response rating,[19]; [25],0
same,S. Flatsedge plant response rating,[19]; [26],0
same,"Plant response rating, S. Flatsedge",[19]; [27],0
